The text below walks through data of ChEMBL document CHEMBL1153985, “In vitro and in vivo SAR of pyrido[3,4-d]pyramid-4-ylamine based mGluR1 antagonists” (Bioorg Med Chem Lett, 2009).

For orientation: Ki means a dissociation constant, usually derived from enzyme kinetics or from competition with a known ligand. The term inhibition in vivo denotes the change of the read-out against control, counted positive when it falls. One may read the IC50 as the concentration needed to halve the response being measured. Higher therefore signals lower potency. A word on the half-life: it is how long it takes for the measured level to halve. A low value points to fast loss. In general, Vd refers to the apparent volume that relates the amount in the body to the concentration in plasma or blood. A lower Vd goes with little distribution into tissue. What is called bioavailability is the share of a dose that reaches the circulation, judged against a reference dose that is usually intravenous. As a reminder, the logD is the decadic logarithm of the distribution of all forms, ionised or not, between an organic phase and buffer at a given pH. Low values mean a more hydrophilic compound, high ones a more lipophilic compound.

The target in data set [1] is Metabotropic glutamate receptor 1 (Rattus norvegicus, UniProt P23385). Nature of the data set: Antagonist activity at rat mGluR1a expressed in CHO cells assessed as inhibition of glutamate-evoked increase in calcium […] preincubated 5 mins before glutamate challenge. It counts as functional, cell-based.
Sequence of Metabotropic glutamate receptor 1 (Rattus norvegicus, UniProt P23385) (P23385 whole entry, the tested form may be a part): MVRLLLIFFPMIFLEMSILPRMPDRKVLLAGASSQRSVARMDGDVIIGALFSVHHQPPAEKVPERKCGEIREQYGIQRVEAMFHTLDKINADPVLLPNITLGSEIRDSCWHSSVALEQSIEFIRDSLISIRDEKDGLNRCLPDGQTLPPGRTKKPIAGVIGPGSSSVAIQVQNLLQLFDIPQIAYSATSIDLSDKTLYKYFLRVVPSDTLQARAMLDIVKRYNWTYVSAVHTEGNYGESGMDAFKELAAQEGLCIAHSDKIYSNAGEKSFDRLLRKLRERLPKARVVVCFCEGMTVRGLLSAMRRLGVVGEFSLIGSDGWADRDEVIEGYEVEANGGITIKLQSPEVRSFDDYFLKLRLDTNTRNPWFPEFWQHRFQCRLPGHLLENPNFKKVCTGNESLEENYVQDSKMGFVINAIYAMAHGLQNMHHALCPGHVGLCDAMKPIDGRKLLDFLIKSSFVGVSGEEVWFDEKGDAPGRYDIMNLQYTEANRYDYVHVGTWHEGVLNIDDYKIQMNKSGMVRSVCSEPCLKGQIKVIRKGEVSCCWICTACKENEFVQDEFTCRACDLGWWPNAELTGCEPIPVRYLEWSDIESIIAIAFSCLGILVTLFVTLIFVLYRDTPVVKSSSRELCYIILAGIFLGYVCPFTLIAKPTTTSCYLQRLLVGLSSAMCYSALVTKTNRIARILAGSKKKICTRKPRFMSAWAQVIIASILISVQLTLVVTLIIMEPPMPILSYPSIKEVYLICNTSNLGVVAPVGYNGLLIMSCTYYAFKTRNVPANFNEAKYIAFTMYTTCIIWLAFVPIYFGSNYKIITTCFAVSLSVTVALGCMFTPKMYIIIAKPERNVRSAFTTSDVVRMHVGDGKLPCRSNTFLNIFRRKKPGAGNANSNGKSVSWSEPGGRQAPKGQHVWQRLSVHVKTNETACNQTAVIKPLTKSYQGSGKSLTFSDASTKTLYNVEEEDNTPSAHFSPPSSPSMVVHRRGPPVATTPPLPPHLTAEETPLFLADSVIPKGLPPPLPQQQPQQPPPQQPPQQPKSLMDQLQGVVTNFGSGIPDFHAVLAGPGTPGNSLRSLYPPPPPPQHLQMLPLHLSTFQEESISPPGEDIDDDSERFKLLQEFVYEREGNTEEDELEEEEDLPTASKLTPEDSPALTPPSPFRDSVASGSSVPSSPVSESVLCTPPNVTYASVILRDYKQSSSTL
For data set [2], the system named is Rattus norvegicus. Nature of the data set: Analgesic activity in awake rat at 0.3 mg/kg, iv administered as bolus dose for 30 seconds and 0.3 mg/kg/hr, iv administered via infusion measured after 1 hr. In kind it is functional, organism-based.
For data set [3], the system named is Rattus norvegicus. The data set can be described thus: Antinociceptive activity in anaesthetized rat assessed as inhibition of noxious pinch-induced electromyograph response at 0.3 mg/kg, iv administered as bolus dose for 30 seconds and 0.3 mg/kg/hr, iv administered via infusion measured after 1 hr. In kind it is functional.
Data set [4] has as its target Metabotropic glutamate receptor 1 (Homo sapiens, UniProt Q13255). The data set can be described thus: Antagonist activity at mGluR1. In kind it is functional.
Data set [5] can be described thus: Half life in rat at 1 mg/kg. In kind it is ADME, organism-based. Details: dose 1 mg/kg. To be noted: in vivo.
The nature of data set [6]: Clearance in rat at 1 mg/kg. It counts as ADME, organism-based. The arrangement: dose 1 mg/kg. To be noted: in vivo.
A short description of data set [7]: Volume of distribution in rat at 1 mg/kg. The settings on record: in vivo. It counts as ADME, organism-based. The arrangement: dose 1 mg/kg.
A short description of data set [8]: Oral bioavailability in rat at 1 mg/kg. It counts as ADME, organism-based. To be noted: in vivo.
Data set [9] can be described thus: Protein binding in rat plasma at 1 mg/kg. Details: dose 1 mg/kg. The settings on record: read-out: PPB (converted). In kind it is ADME, organism-based.
In data set [10] the test system is Liver microsomes. Nature of the data set: Metabolic stability in human liver microsomes assessed as intrinsic clearance. It counts as ADME, Microsome. A general note: Liver microsomes are a subcellular fraction often used to study metabolism.
In data set [11] the test system is Liver microsomes. The data set can be described thus: Metabolic stability in rat liver microsomes assessed as intrinsic clearance. In kind it is ADME, Microsome.
Data set [12] has as its target Metabotropic glutamate receptor 5 (Homo sapiens, UniProt P41594). Nature of the data set: Antagonist activity at mGluR5. In kind it is functional.
In data set [13] the test system is Rattus norvegicus. The data set can be described thus: Antinociceptive activity in anaesthetized rat assessed as inhibition of noxious pinch-induced electromyograph response at 22 mg/kg, iv administered as bolus dose for 30 seconds and 9.6 mg/kg/hr, iv administered via infusion measured after 1 hr. It counts as functional, organism-based.
Data set [14] deals with Rattus norvegicus. The data set can be described thus: Antinociceptive activity in anaesthetized rat assessed as inhibition of low threshold tactile stimulus-induced electromyograph response at 22 mg/kg, iv administered as bolus dose for 30 seconds and 9.6 mg/kg/hr, iv administered via infusion measured after 1 hr. In kind it is functional, organism-based.
Data set [15] concerns Rattus norvegicus. The data set can be described thus: Antinociceptive activity in anaesthetized rat assessed as maximal inhibition of noxious pinch-induced electromyograph response at 10 fold free Ki concentration in cerebrospinal fluid measured after 1 hr. It counts as functional, organism-based.
For data set [16], the system named is Rattus norvegicus. The data set can be described thus: Free plasma concentration in anaesthetized electromyograph pinch rat model at 22 mg/kg, iv administered as bolus dose for 30 seconds and 9.6 mg/kg/hr, iv administered via infusion. In kind it is ADME, organism-based. To be noted: in vivo.
In data set [17] the test system is Rattus norvegicus. Nature of the data set: Toxicity in anaesthetized electromyograph pinch rat model assessed as effect on sensory input to spinal cord at 22 mg/kg, iv administered as bolus dose for 30 seconds and 9.6 mg/kg/hr, iv administered via infusion. In kind it is organism-based. To be noted: in vivo.
The nature of data set [18]: Solubility of the compound. It counts as physicochemical.
Data set [19] can be described thus: Ratio of free drug level in cerebrospinal fluid to steady state unbound plasma in iv dosed rat. It counts as ADME, organism-based.
The nature of data set [20]: Lipophilicity, log D of the compound. The settings on record: octanol/water. It counts as physicochemical.
Data set [21] relates to Rattus norvegicus. Nature of the data set: Antinociceptive activity in anaesthetized rat assessed as maximal inhibition of noxious pinch-induced electromyograph response at 8 to 16 fold free Ki concentration in cerebrospinal fluid measured after 1 hr. In kind it is functional, organism-based.

Calls of active or inactive are those of the source. Bounds are passed on as bounds.

Sequence of Metabotropic glutamate receptor 1 (Homo sapiens, UniProt Q13255) (Q13255 whole entry): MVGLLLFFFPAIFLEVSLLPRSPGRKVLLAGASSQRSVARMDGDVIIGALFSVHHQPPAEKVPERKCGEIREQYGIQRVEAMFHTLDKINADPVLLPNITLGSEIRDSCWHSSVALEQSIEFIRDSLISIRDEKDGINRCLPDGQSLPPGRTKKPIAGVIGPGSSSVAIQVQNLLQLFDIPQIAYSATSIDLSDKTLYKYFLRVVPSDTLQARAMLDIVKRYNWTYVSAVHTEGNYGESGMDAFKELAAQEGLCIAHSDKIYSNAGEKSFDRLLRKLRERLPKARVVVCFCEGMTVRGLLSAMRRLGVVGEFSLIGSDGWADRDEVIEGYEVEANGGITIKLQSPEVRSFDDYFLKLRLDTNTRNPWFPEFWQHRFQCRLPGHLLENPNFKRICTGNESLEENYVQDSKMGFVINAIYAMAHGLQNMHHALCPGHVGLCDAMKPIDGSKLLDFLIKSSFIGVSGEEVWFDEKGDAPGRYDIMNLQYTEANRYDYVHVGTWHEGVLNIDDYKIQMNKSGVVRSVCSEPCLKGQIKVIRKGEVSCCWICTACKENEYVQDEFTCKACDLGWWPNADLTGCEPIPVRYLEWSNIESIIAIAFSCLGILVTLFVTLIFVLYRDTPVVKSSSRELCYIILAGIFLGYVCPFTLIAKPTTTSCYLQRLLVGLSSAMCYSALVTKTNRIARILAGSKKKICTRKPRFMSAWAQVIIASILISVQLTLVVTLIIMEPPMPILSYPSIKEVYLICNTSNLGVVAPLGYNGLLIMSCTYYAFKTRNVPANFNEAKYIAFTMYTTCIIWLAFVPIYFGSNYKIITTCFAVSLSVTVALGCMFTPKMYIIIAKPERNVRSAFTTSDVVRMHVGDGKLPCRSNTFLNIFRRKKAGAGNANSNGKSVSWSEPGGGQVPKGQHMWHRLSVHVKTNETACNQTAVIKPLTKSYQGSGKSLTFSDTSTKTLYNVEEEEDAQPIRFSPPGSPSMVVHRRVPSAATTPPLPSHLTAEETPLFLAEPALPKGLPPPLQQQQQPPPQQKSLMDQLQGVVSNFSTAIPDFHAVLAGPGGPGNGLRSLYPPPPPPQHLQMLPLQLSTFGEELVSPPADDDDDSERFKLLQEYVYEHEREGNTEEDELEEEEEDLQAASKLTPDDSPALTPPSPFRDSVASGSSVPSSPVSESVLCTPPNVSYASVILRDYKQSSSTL
Sequence of Metabotropic glutamate receptor 5 (P41594 whole entry, the tested form may be a part): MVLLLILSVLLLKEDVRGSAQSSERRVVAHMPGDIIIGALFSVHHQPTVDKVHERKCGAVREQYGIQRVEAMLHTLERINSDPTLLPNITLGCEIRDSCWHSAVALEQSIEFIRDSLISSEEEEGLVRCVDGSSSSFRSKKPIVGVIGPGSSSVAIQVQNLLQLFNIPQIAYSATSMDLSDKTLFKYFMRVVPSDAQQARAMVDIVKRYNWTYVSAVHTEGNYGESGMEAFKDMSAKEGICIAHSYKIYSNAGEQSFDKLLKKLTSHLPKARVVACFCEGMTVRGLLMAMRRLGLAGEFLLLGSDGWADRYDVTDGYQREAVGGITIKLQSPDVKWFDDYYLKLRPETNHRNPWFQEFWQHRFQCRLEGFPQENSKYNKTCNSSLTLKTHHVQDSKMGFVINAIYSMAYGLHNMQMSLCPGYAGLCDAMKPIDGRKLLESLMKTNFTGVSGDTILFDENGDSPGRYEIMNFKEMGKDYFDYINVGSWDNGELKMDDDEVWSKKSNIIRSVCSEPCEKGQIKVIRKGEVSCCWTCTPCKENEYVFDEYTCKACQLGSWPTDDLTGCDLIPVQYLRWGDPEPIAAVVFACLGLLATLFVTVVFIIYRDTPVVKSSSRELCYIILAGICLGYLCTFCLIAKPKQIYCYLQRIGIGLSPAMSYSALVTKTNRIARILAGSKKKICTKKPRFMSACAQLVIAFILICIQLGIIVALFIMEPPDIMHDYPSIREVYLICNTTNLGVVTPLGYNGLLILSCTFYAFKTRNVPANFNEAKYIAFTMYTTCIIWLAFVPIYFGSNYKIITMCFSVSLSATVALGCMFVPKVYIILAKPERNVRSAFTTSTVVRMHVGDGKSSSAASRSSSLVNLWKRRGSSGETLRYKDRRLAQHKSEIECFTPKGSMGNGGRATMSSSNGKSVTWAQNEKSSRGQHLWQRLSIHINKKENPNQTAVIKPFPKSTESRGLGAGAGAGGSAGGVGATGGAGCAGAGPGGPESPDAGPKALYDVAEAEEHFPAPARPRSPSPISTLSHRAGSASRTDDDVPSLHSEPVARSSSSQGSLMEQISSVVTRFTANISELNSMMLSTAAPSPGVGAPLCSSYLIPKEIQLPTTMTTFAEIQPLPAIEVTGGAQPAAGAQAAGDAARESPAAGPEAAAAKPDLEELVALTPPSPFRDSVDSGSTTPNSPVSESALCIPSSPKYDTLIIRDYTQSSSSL

Regarding `COCCNc1cc2c(NC3CCCCC3)ncnc2cn1`, in data set [1], the Ki worked out at 11 nM. On the same count and under the same terms, as for `c1ccc2c(c1)CC(Nc1nccc3ccccc13)C2`, the figure is 1650 nM.

Turning to `CN1CC[C@]23c4c5ccc(O)c4O[C@H]2[C@@H](O)C=C[C@H]3[C@H]1C5` [MORPHINE], the result in the data set with Rattus norvegicus [2] was Active. The inhibition in vivo at 0.3 mg/kg with Rattus norvegicus [3] was found to be 40%. Turning to `C[C@H](Nc1ncnc2cnc(N(C)C)cc12)c1ccccc1`, in [1], the Ki was determined as 1400 nM. For `c1ccc2c(NC3CCCCC3)ncnc2c1`, the Ki in data set [1] turned out to be 27 nM. On the same count and under the same terms, the same measure for `OCCOc1cc2c(NC3CCCCC3)ncnc2cn1`: 177 nM; for `OCCNc1cc2c(NC3Cc4ccccc4C3)ncnc2cn1`: 21 nM; for `CNc1cc2c(N(C)C3Cc4ccccc4C3)ncnc2cn1`: 54 nM. With `CN(C)c1cc2c(NC3CCCCC3)ncnc2cn1`, in data set [1], the Ki is 199 nM. In the case of `OCCOCCNc1cc2c(NC3Cc4ccccc4C3)ncnc2cn1`, the Ki in data set [1] came to 3 nM. The IC50 in data set [4] is 3 nM; in data set [12], over 3000 nM. Also, the half-life in data set [5] is 18 min. For the same molecule, the figures for the clearance (in data set [6]; with Liver microsomes [10]; with Liver microsomes [11]) were 26 mL/min/kg, under 7 µL/min/mg and 30 µL/min/mg, respectively. Further, the Vd in [7] was found to be 0.6 L/kg. In data set [8], this molecule returned a bioavailability of 33%. The fraction unbound in [9] is 0.19. The inhibition result with Rattus norvegicus [13] and in the data set with Rattus norvegicus [15] was “Active” each time. The inhibition result in the data set on Rattus norvegicus [14] was “inactive”. In the data set with Rattus norvegicus [16], this molecule gave a Cp of over 1000 nM. Besides, in the data set with Rattus norvegicus [17], the Activity entry is given as “Non-toxic”. In [18], the solubility entry is recorded as “Insoluble”. Further, the Kp uu in data set [19] stood at 0.02. This molecule also showed a logD in data set [20] of 3. Take `CNc1cc2c(NC3Cc4ccccc4C3)ncnc2cn1`: the Ki in data set [1] came out at 14 nM. For the same molecule, in [19], the Kp uu was 0.06. In addition, the logD in [20] stood at 2.9.

As to `O=C1CCCN1CCOc1cc2c(NC3CCCCC3)ncnc2cn1`, in data set [1], the Ki was found to be 20 nM. Regarding `NCCCNc1cc2c(NC3CCCCC3)ncnc2cn1`, the Ki in [1] amounted to 200 nM. The same measure, in the same setting: the same measure for `c1ccc2c(NC3CCCCC3)ccnc2c1`: 6160 nM. With `CN(C)c1cc2c(NC3Cc4ccccc4C3)ncnc2cn1`, in [1], the Ki was found to be 185 nM.

Take `CN(C)c1cc2c(N(C)C3Cc4ccccc4C3)ncnc2cn1`: the Ki in data set [1] was determined as 300 nM. With `c1nc(NC2CCCCC2)c2cc(NCCN3CCOCC3)ncc2n1`, the Ki in data set [1] is 10 nM. Further, the Kp uu in [19] turned out to be 0.07. Besides, the logD in data set [20] amounted to 2.8. As to `c1ccc2c(c1)CC(Nc1ncnc3ccccc13)C2`, in [1], the inhibition constant (Ki) is 34 nM. Same read-out and setting: the same measure for `COc1cc2c(NC3Cc4ccccc4C3)ncnc2cn1`: 115 nM; for `c1ccc2c(OC3CCCCC3)ncnc2c1`: 694 nM. Regarding `CN(C)CCNc1cc2c(NC3Cc4ccccc4C3)ncnc2cn1`, in data set [1], the inhibition constant Ki is 102 nM.

As for `COCCNc1cc2c(NC3Cc4ccccc4C3)ncnc2cn1`, the Ki in [1] was determined as 5 nM.

Take `NCCNc1cc2c(NC3CCCCC3)ncnc2cn1`: the Ki in [1] was determined as 2200 nM. Regarding `OCCCOc1cc2c(NC3CCCCC3)ncnc2cn1`, the Ki in data set [1] was found to be 33 nM. The same measure, in the same setting: as for `OCCNc1ncnc2cnc(NC3Cc4ccccc4C3)cc12`, the figure is 125 nM. Regarding `Nc1cc2c(Nc3ccc(F)c(Cl)c3)ncnc2cn1`, it took 300 nM to reach half-maximal inhibition in data set [4] (IC50).

In the case of `CNc1ncnc2cnc(NC3Cc4ccccc4C3)cc12`, in [1], the Ki is 160 nM. The same measure, in the same setting: the same measure for `CCCC(C)Nc1ncnc2cnc(N(C)C)cc12` (centres undefined): 858 nM. Turning to `OCCNc1cc2c(NCCO)ncnc2cn1`, the Ki in data set [1] is 6150 nM. In the case of `c1ccc2c(c1)CC(Nc1cc3c(NC4Cc5ccccc5C4)ncnc3cn1)C2`, in data set [1], the Ki is 31 nM. With `c1nc(NC2CCCCCC2)c2cc(OCCN3CCOCC3)ncc2n1`, in data set [1], the Ki came to 6 nM. Besides, the clearance in the data set with Liver microsomes [10] came to 24 µL/min/mg. Besides, the Kp uu in [19] worked out at 0.5. This molecule showed a logD in [20] of 3.4. Further, the inhibition entry with Rattus norvegicus [21] was “Active”. Regarding `COCCOc1cc2c(NC3CCCCC3)ncnc2cn1`, the Ki in data set [1] was 101 nM. Same read-out and setting: the same measure for `c1nc(NC2CCCCC2)c2cc(OCCN3CCOCC3)ncc2n1`: 42 nM.
